Reference: patent US11930819B2, “Antimicrobial compositions with enhanced efficacy” (ECOLAB USA INC., priority 2017, dated 2024)
“Also recorded” adds a separate entry of the source.

Tests used:
Type in all cases: cell-based
[1] = tested on: Serratia marcescens ATCC 14756; experiment: Time Kill Efficacy, chelant comparison; details: chelant added to cationic active-containing base formula
Method: Testing was performed to assess performance of differing chelants. Multiple amino acid based chelants were tested in exemplary compositions of the invention and tested against a control formulation containing no chelant.
Formula 5A served as the control having no chelant. Formulas 5B and 5C included GLDA and MGDA, respectively, for comparative testing against each other and the control. The compositions were inoculated with Serratia marcescens ATCC 14756 for 30 seconds at room temperature. Before adding the antimicrobial compositions, the inoculum numbers were measured (CFO/mL). The average count was […] providing a log average of 8.06. The inoculated surface was contacted with the various formulations for 30 seconds and the log reduction was measured.

[2] = tested on: Serratia marcescens ATCC 14756; experiment: in vitro Time Kill testing (ASTM E 2315), Serratia marcescens; details: 1.2% cationic surfactant with 0.6% benzalkonium chloride, Table 6
Method: (§1) In Examples 1-4, the survival of challenged organisms exposed to an antimicrobial test composition was measured using in vitro Time Kill testing, based on ASTM E 2315 Standard Guide for Assessment of Antimicrobial Activity Using a Time Kill Procedure. Utilizing this method, the inoculum is prepared by growing a microbial culture using a D/E agar medium. The microbial population then is washed from the agar with sterile physiological saline and the population of the microbial suspension is adjusted to around 10^8 colony forming units (cfu) per ml. An aliquot of the test formula, or a dilution thereof, is brought into contact with this known population of bacteria at ambient temperature. The test composition is neutralized after a set amount of time, which arrests the antimicrobial activity of the test sample. The log reduction from the original bacteria population is calculated using the following formula: log10 reduction=log10(control)−log10(test sample survivors) Each test was performed in duplicate and the average log reduction reported.
Once it was determined that cationic surfactants with chain lengths having 18 or less carbons provided enhanced microbiological efficacy, three such cationic surfactants were evaluated against Serratia marcescens, a Gram negative microorganism. […]

[3] = tested on: Escherichia coli ATCC 11229; experiment: in vitro Time Kill testing (ASTM E 2315), cationic-compatible surfactants, Table 4; details: 1% surfactant in 0.2% benzalkonium chloride formula
Method: as §1, with “reported. The efficacy of formulations with differing cationic-compatible surfactants with the same alkyl chain length is outlined in Tables 3 and 4. In each instance, citric acid and/or potassium hydroxide were used to maintain a pH of 6, and water was added quantum satis. […]” for “reported.”

Compound | effect of chelant on antimicrobial efficacy of base formula [1] | degree of microbiological efficacy [2] | impact on microbiological efficacy [3]
O=C(O)CC[C@@H](C(=O)O)N(CC(=O)O)CC(=O)O [GLDA, Glutamic acid diacetic acid] | did not show any enhancement of antimicrobial efficacy | – | –
CCCCCCCCCCCC[N+](C)(C)C.[Cl-] [Laurtrimonium chloride, Lauryl Trimethyl Ammonium Chloride] | – | highest degree of efficacy | –
CC(C(=O)O)N(CC(=O)O)CC(=O)O (stereo not drawn) [MGDA, Methylglycinediacetic acid] | significantly enhance the biocidal activity; also recorded: much higher log reduction | – | –
CCCCCCCCCCCCCCCC(=O)NCCC[N+](C)(C)C.[Cl-] [Palmitamidopropyl trimonium chloride, Palmitamidopropyl Trimonium Chloride] | – | lowest degree of microbiological efficacy | –
Cocamidopropyl Betaine | – | – | significant negative impact on microbiological efficacy
Coco Glucoside | – | – | negative impact on microbiological efficacy
